Source: patent US20260374766A1, “METHODS FOR TREATING CANCER” (Antares Therapeutics, Inc., priority 2022, published 2026)
Like-named read-outs stand apart in the source and are kept apart here.

What was measured:
[1] = biological target: T1, p53 Y220C mutant protein (amino acid residues 94-293) (Homo sapiens, UniProt P04637, Y220C); experiment: Thermal Shift Assay (TSA), dTM; type: binding; conditions: thermal shift; for ΔTm at 100 µM: 100 uM compound, read-out: TSA P53 Y220C dTM (100 uM)
T1 construct: p53 Y220C mutant protein (amino acid residues 94-293)
Description: Thermal Shift Assay (TSA) Protocol
5 μM recombinant p53 Y220C mutant protein (amino acid residues 94-293) was incubated with 10 μM or 100 μM compound for 3 hours at 20 °C in buffer containing 20 mM HEPES, pH7.4, 100 mM NaCl, 0.01% Pluronic F-127, and 1% DMSO in the presence of 400-fold diluted Sypro Orange (ThermoFisher Scientific catalog number 4461146), on a 384-well PCR plate (Applied Biosystems catalog number 4483285). The volume was 5 μL/well. The sealed plate was then loaded onto a QuantStudio 7 Flex instrument for melting temperature (TM) measurement. The temperature was increased from 30 °C to […], at a rate of 0.03 °C/second. Data were fit into a Boltzmann two-state model to determine the TM.

H1299 p53 Y220C = experiment: Cell Proliferation Assay (CellTiter-Glo, CTG), H1299 p53 Y220C (NClH1299-inducible p53 Y220C); type: cell-based; conditions: Homo sapiens, NCI-H1299, 120 h, 5 days
In short: (§1)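 Tet-One inducible p53 Y220C or R273H constructs were stably introduced into NCI-H1299 by lentiviral transduction; NUGC3 was used as is. Cells (250-500 per well) were exposed to compound for 5 days, then CellTiter-Glo was added for 10 min at room temperature and IC50 was calculated from luminescence.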

p53 Y220C = p53 Y220C (Homo sapiens, UniProt P04637, Y220C); experiment: Luciferase Reporter Assay (Luc), p53 response element, NClH1299 cells with inducible p53 Y220C; type: cell-based; conditions: 6 hour; for Emax: 10 uM tool compound as positive control; for AC50: read-out: Luc P53 Y220C AC50
In short: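 Cells were seeded at 5,000 per well and induced with 0.5 ug/mL doxycycline for 24 hours, then exposed to compound for 6 hours. One-Glo reagent was added, plates shaken 5 minutes at room temperature, and luminescence read immediately.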

[2] = biological target: T1, p53 Y220C mutant protein (amino acid residues 94-293); experiment: Surface Plasmon Resonance (SPR) assay, Kd_kinetic; type: binding; conditions: SPR, p53 Y220C, read-out: SPR P53 Y220C KD kinetic
In short: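 Kd values come from fitting sensorgrams to a 1:1 binding model. Sensorgrams were recorded on a Biacore 8K at 16 or 20 °C in pH 7.5 Tris buffer with 100 mM NaCl, 1 mM DTT, detergents and 1% DMSO.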

H1299 p53 R273H = experiment: Cell Proliferation Assay (CellTiter-Glo, CTG), H1299 p53 R273H (NClH1299-inducible p53 R273H); type: cell-based; conditions: Homo sapiens, NCI-H1299, 120 h, NClH1299-inducible p53 R273H cells; 5 days
In short: as §1

NUGC3 p53 Y220C = experiment: Cell Proliferation Assay (CellTiter-Glo, CTG), NUGC3 p53 Y220C; type: cell-based; conditions: Homo sapiens, NUGC-3, 120 h, NUGC3 cells; 5 days
In short: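 NClH1299 lines stably transduced with Tet-inducible p53 Y220C or R273H, plus NUGC3, were treated with compound for 5 days at 250-500 cells/well. IC50 derived from CellTiter-Glo luminescent signal after 10 min room-temperature incubation.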

[3] = luciferase reporter, NClH1299 inducible p53 Y220C
[4] = NClH1299-inducible p53 Y220C cells
[5] = AC50, NClH1299 cells with inducible p53 Y220C
[6] = Emax, NClH1299 cells with inducible p53 Y220C

ΔTm at 100 µM [1] [°C] | IC50 (H1299 p53 Y220C; CellTiter-Glo, H1299 p53 Y220C) [nM] | ΔTm at 10 µM ([1]; 10 uM compound, read-out: TSA P53 Y220C dTM (10 uM)) [°C] | Emax (p53 Y220C; [3]) [%] | AC50 (p53 Y220C; [3]) [nM] | Kd ([2]; kinetic KD) [nM] | IC50 (H1299 p53 R273H) [µM] | IC50 (H1299 p53 Y220C; [4]) [nM] | AC50 (p53 Y220C; [5]) [nM] | Emax (p53 Y220C; [6]) [%] | Kd [2] [nM] | Structure (SMILES) | IC50 (NUGC3 p53 Y220C) [nM]
1 to 5 |  |  |  |  |  |  |  |  |  |  | C=Cc1c(C#CC)nc2c(NC3CCN(C)CC3)cccn12 [Example 21, N-[3-ethenyl-2-(prop-1-yn-1-yl)imidazo[1,2-a]pyridin-8-yl]-1-methylpiperidin-4-amine] | 
1 to 5 |  |  |  |  |  |  |  |  |  |  | COc1cc(S(C)(=O)=O)ccc1NCC#Cc1nc2c(NC3CCN(C)CC3)cc(NC(=O)OC(C)(C)C)cn2c1CC(F)(F)F [Example 31, tert-butyl N-(2-{3-[(4-methanesulfonyl-2-methoxyphenyl)amino]prop-1-yn-1-yl}-8-[(1-methylpiperidin-4-yl)amino]-3-(2,2,2-trifluoroethyl)imidazo[1,2-a]pyridin-6-yl) carbamate] | 
 | < 750 | ≥ 10 | 80 to 90 | < 750 | < 10 |  |  |  |  |  | CNC(=O)c1ccc(NCC#Cc2nc3c(N[C@@H]4CCN(CC(C)(C)O)C[C@@H]4F)cccn3c2SC(F)(F)F)c(OC)c1 [Example 164] | 
 |  |  |  |  |  | 5 to 8 | < 750 | < 750 | > 90 | < 10 | CNC(=O)c1ccc(OC)c(NCC#Cc2cc3c(N[C@@H]4CCN(C5COC5)C[C@@H]4F)cccn3c2SC(F)(F)F)c1 [Example 481, 3-{[3-(8-{[(3S,4R)-3-fluoro-1-(oxetan-3-yl)piperidin-4-yl]amino}-3-[(trifluoromethyl)sulfanyl]indolizin-2-yl)prop-2-yn-1-yl]amino}-4-methoxy-N-methylbenzamide] | < 750
 |  |  |  |  |  | ≥ 10 | < 750 | < 750 | > 90 | < 10 | COc1ccc(C(=O)N[C@H]2C[C@H](O)C2)cc1NCC#Cc1cc2c(N[C@@H]3CCN(C)C[C@@H]3F)cccn2c1SC(F)(F)F [Example 482] | < 750
 |  |  |  |  |  | ≥ 10 | < 750 | < 750 | > 90 | < 10 | CNC(=O)c1cc(NCC#Cc2cc3c(N[C@@H]4CCN(C)C[C@@H]4F)cccn3c2SC(F)(F)F)c2nncn2c1 [Example 483, 8-{[3-(8-{[(3S,4R)-3-fluoro-1-methylpiperidin-4-yl]amino}-3-[(trifluoromethyl)sulfanyl]indolizin-2-yl)prop-2-yn-1-yl]amino}-N-methyl-[1,2,4]triazolo[4,3-a]pyridine-6-carboxamide] | < 750
 |  |  |  |  |  | 8 to 10 | < 750 | < 750 | > 90 | < 10 | O=C(NC[C@@H]1COCCO1)c1ccc(NCC#Cc2cc3c(N[C@@H]4CCNC[C@@H]4F)cccn3c2SC(F)(F)F)cc1 [Example 484] | < 750
 |  |  |  |  |  | ≥ 10 | < 750 | < 750 | > 90 | < 10 | C[C@@H](O)CNC(=O)c1ccc(OC2COC2)c(NCC#Cc2cc3c(N[C@@H]4CCN(C)C[C@@H]4F)cccn3c2SC(F)(F)F)c1 [Example 486] | < 750
 |  |  |  |  |  | 5 to 8 | < 750 | < 750 | > 90 | < 10 | CNC(=O)c1ccc(NCC#Cc2cc3c(N[C@@H]4CCNC[C@@H]4F)cccn3c2SC(F)(F)F)c(OC)n1 [Example 488] | < 750
 |  |  |  |  |  | 5 to 8 | < 750 | < 750 | > 90 | < 10 | CNC(=O)c1ccc(NCC#Cc2cc3c(N[C@@H]4CCNC[C@@H]4F)cccn3c2SC(F)(F)F)cc1 [Example 492, 4-{[3-(8-{[(3S,4R)-3-fluoropiperidin-4-yl]amino}-3-[(trifluoromethyl)sulfanyl]indolizin-2-yl)prop-2-yn-1-yl]amino}-N-methylbenzamide] | < 750
 |  |  |  |  |  | ≥ 10 | < 750 | < 750 | > 90 | < 10 | CNC(=O)c1ccc(NCC#Cc2cc3c(N[C@@H]4CCN(C)C[C@@H]4F)cccn3c2SC(F)(F)F)c(C(=O)NC)c1 [Example 493, 4-{[3-(8-{[(3S,4R)-3-fluoro-1-methylpiperidin-4-yl]amino}-3-[(trifluoromethyl)sulfanyl]indolizin-2-yl)prop-2-yn-1-yl]amino}-N1,N3-dimethylbenzene-1,3-dicarboxamide] | < 750
 |  |  |  |  |  | 5 to 8 | < 750 | < 750 | > 90 | < 10 | CNC(=O)c1ccc(NCC#Cc2cc3c(N[C@@H]4CCN(C)C[C@@H]4F)cccn3c2SC(F)(F)F)c(C(=O)NC)n1 [Example 495, 3-{[3-(8-{[(3S,4R)-3-fluoro-1-methylpiperidin-4-yl]amino}-3-[(trifluoromethyl)sulfanyl]indolizin-2-yl)prop-2-yn-1-yl]amino}-N2,N6-dimethylpyridine-2,6-dicarboxamide] | < 750
 |  |  |  |  |  | 5 to 8 | < 750 | < 750 | > 90 | < 10 | CNC(=O)c1cnc(C(=O)NC)c(NCC#Cc2cc3c(N[C@@H]4CCN(C)C[C@@H]4F)cccn3c2SC(F)(F)F)c1 [Example 496] | < 750
 |  |  |  |  |  | ≥ 10 | < 750 | < 750 | > 90 | < 10 | CNC(=O)c1cnc(OC)c(NCC#Cc2cc3c(N[C@@H]4CCNC[C@@H]4F)cccn3c2SC(F)(F)F)c1 [Example 498] | < 750
 |  |  |  |  |  | 5 to 8 | < 750 | < 750 | > 90 | < 10 | CNC(=O)c1ccc(OC2COC2)c(NCC#Cc2cc3c(N[C@@H]4CCN(C)C[C@@H]4F)cccn3c2SC(F)(F)F)c1 [Example 499] | < 750
 |  |  |  |  |  | ≥ 10 | < 750 | < 750 | > 90 | < 10 | CNC(=O)c1ccc(NCC#Cc2cc3c(N[C@@H]4CCN(C)C[C@@H]4F)cccn3c2SC(F)(F)F)c(F)c1 [Example 502, 3-fluoro-4-{[3-(8-{[(3S,4R)-3-fluoro-1-methylpiperidin-4-yl]amino}-3-[(trifluoromethyl)sulfanyl]indolizin-2-yl)prop-2-yn-1-yl]amino}-N-methylbenzamide] | < 750
 |  |  |  |  |  | < 5 | < 750 | < 750 | > 90 | < 10 | CNC(=O)c1ccc(NCC#Cc2cc3c(N[C@@H]4CCN(C5COC5)C[C@@H]4F)cccn3c2SC(F)(F)F)c(OC)c1 [Example 504, 4-{[3-(8-{[(3S,4R)-3-fluoro-1-(oxetan-3-yl)piperidin-4-yl]amino}-3-[(trifluoromethyl)sulfanyl]indolizin-2-yl)prop-2-yn-1-yl]amino}-3-methoxy-N-methylbenzamide] | < 750
 |  |  |  |  |  | 8 to 10 | < 750 | < 750 | > 90 | < 10 | CNC(=O)c1ccc(C(=O)NC)c(NCC#Cc2cc3c(N[C@@H]4CCN(C)C[C@@H]4F)cccn3c2SC(F)(F)F)c1 [Example 508] | < 750

Structure (SMILES) | ΔTm at 100 µM [1] [°C] | IC50 (H1299 p53 Y220C; CellTiter-Glo, H1299 p53 Y220C) [nM] | ΔTm at 10 µM ([1]; 10 uM compound, read-out: TSA P53 Y220C dTM (10 uM)) [°C] | Emax (p53 Y220C; [3]) [%] | AC50 (p53 Y220C; [3]) [nM] | Kd ([2]; kinetic KD) [nM] | IC50 (H1299 p53 R273H) [µM] | IC50 (H1299 p53 Y220C; [4]) [nM] | AC50 (p53 Y220C; [5]) [nM] | Emax (p53 Y220C; [6]) [%] | Kd [2] [nM] | IC50 (NUGC3 p53 Y220C) [nM]
CNC(=O)c1ccc(O[C@H]2C[C@H](O)C2)c(NCC#Cc2cc3c(N[C@@H]4CCN(C)C[C@@H]4F)cccn3c2SC(F)(F)F)c1 [Example 497, 3-{[3-(8-{[(3S,4R)-3-fluoro-1-methylpiperidin-4-yl]amino}-3-[(trifluoromethyl)sulfanyl]indolizin-2-yl)prop-2-yn-1-yl]amino}-N-methyl-4-[(1r,3r)-3-hydroxycyclobutoxy]benzamide] |  |  |  |  |  |  | ≥ 10 | < 750 | < 750 | > 90 | < 10 | < 750
